Assay results from the NIST ThermoML archive (doi:10.1021/je200972w).
± gives the expanded uncertainty stated by the source.

Settings: Liquid, Ebulliometric method (Recirculating still)

| vapor or sublimation pressure (337.42 K) [kPa] | SMILES | vapor or sublimation pressure (329 K) [kPa] |
| --- | --- | --- |
| 100 ± 0.7 | CO [methanol] |  |
|  | CC(C)=O [acetone] | 100 ± 0.7 |
